# Measurements: US20240166652A1, “MODULATORS OF THE INTEGRATED STRESS PATHWAY” (Calico Life Sciences LLC, priority 2017, published 2024)
# Test system: ATF4 luciferase reporter in HEK293T cells
# Assay: ATF4-Luc assay (ATF4 luciferase reporter, tunicamycin-treated HEK293T cells)
# Format: cell-based, human
# Conditions: HEK293T cells carrying the ATF4 luciferase reporter, 1 μg/mL tunicamycin, 7 hours
# Procedure: In order to test exemplary compounds of the invention in a cellular context, a stable VWMD cell line was first constructed. The ATF4 reporter was prepared by fusing the human full-length ATF4 5′-UTR (NCBI Accession No. BC022088.2) in front of the firefly luciferase (FLuc) coding sequence lacking the initiator methionine as described in Sidrauski et al (eLife 2013). The construct was used to produce recombinant retroviruses using standard methods and the resulting viral supernatant was used to transduce HEK293T cells, which were then subsequently selected with puromycin to generate a stable cell line.
# HEK293T cells carrying the ATF4 luciferase reporter were plated on polylysine coated 384-well plates (Greiner Bio-one) at 30,000 cells per well. Cells were treated the next day with 1 μg/mL tunicamycin and 200 nM of a compound of Formula (I) for 7 hours. Luminescence was measured using One Glo (Promega) as specified by the manufacturer. Cells were maintained in DMEM with L-glutamine supplemented with 10% heat-inactivated FBS (Gibco) and Antibiotic-Antimycotic solution (Gibco).
# Table 2 below summarizes the EC50 data obtained using the ATF4-Luc assay for exemplary compounds of the invention.
row,SMILES,EC50 [nM]
1,"O=C(COc1ccc(Cl)c(F)c1)NC12CCC(NC(=O)COc3ccc(C(F)(F)F)nc3)(CC1)C(F)C2 (single isomer, unassigned) [Compound 373]",50 to 250

# Same assay, conditions: Homo sapiens, HEK-293T; HEK293T cells carrying the ATF4 luciferase reporter, 1 μg/mL tunicamycin, 7 hours
row,SMILES,EC50 [nM]
1,"CS(=O)(=O)c1cc(OCC(=O)NC23CCC(NC(=O)COc4ccc(F)cc4)(CC2)[C@@H](O)C3)ccc1F [Compound 819, 2-[4-fluoro-3-(methanesulfonyl)phenoxy]-N-{(3S)-4-[2-(4-fluorophenoxy)acetamido]-3-hydroxybicyclo[2.2.2]octan-1-yl}acetamide]",500 to 2000
2,"Cc1ccc(OCC(=O)NC23CCC(NC(=O)COc4ccc(Cl)c(F)c4)(CC2)C[C@@H]3O)cc1C [Compound 510, 2-(4-chloro-3-fluorophenoxy)-N-{(3S)-4-[2-(3,4-dimethylphenoxy)acetamido]-3-hydroxybicyclo[2.2.2]octan-1-yl}acetamide]",< 10
3,"O=C(COc1ccc(Cl)c(Cl)c1)NC12CCC(NC(=O)COc3cc(F)c4cn[nH]c4c3)(C1)C2 [Compound 195, 2-(3,4-dichlorophenoxy)-N-(4-{2-[(4-fluoro-1H-indazol-6-yl)oxy]acetamido}-bicyclo[2.1.1]hexan-1-yl)acetamide]",10 to 50
4,"CN(CC(=O)NC12CC(NC(=O)COc3ccc(Cl)c(F)c3)(C1)C2)c1ccc(Cl)cc1 [Compound 201, N-{3-[2-(4-chloro-3-fluorophenoxy)acetamido]bicyclo[1.1.1]pentan-1-yl}-N^2-(4-chlorophenyl)-N^2-methylglycinamide]",500 to 2000
5,"O=C(COc1ccc(Cl)c(F)c1)NC12CC(NC(=O)COc3ccc4c(c3)OC(F)(F)O4)(C1)C2 [Compound 258, 2-(4-chloro-3-fluorophenoxy)-N-(3-{2-[(2,2-difluoro-2H-1,3-benzodioxol-5-yl)oxy]acetamido}bicyclo[1.1.1]pentan-1-yl)acetamide]",< 10
6,Cc1ccc(OCC(=O)NC23CCC(NC(=O)COc4cc(F)c5cn[nH]c5c4)(CC2)[C@@H](O)C3)cc1F [Compound 735],< 10
7,"O=C(COc1ccc(Cl)cc1)NC12CC(NC(=O)COc3ccc4c(c3)OC(F)(F)O4)(C1)C2 [Compound 580, 2-(4-chlorophenoxy)-N-(3-{2-[(2,2-difluoro-2H-1,3-benzodioxol-5-yl)oxy]acetamido}bicyclo[1.1.1]pentan-1-yl)acetamide]",< 10
8,"O=C(COc1ccc(C(F)F)cc1)NC12CC(NC(=O)COc3ccc(C(F)F)cc3)(C1)C2 [Compound 389, N,N′-(bicyclo[1.1.1]pentane-1,3-diyl)bis{2-[4-(difluoromethyl)phenoxy]acetamide}]",250 to 500
9,"O=C(COc1ccc(F)c(OC(F)F)c1)NC12CCC(NC(=O)COc3ccc(Cl)c(F)c3)(CC1)[C@@H](O)C2 [Compound 808, 2-(4-chloro-3-fluorophenoxy)-N-[(2S)-4-{2-[3-(difluoromethoxy)-4-fluorophenoxy]acetamido}-2-hydroxybicyclo[2.2.2]octan-1-yl]acetamide]",< 10
10,"COc1ncc(OCC(=O)NC23CCC(NC(=O)COc4ccc5c(c4)OC(F)(F)O5)(CC2)[C@@H](O)C3)cn1 [Compound 632, 2-[(2,2-difluoro-2H-1,3-benzodioxol-5-yl)oxy]-N-[(2S)-2-hydroxy-4-{2-[(2-methoxypyrimidin-5-yl)oxy]acetamido}bicyclo[2.2.2]octan-1-yl]acetamide]",10 to 50
11,"O=C(COc1ccc(Cl)c(F)c1)NC12CCC(NC(=O)COc3ccc(Cl)c(F)c3)(CC1)C1(CO1)C2 (stereo not drawn) [Compound 654, N,N′-(spiro[bicyclo[2.2.2]octane-2,2′-oxirane]-1,4-diyl)bis[2-(4-chloro-3-fluorophenoxy)acetamide]]",< 10
12,"Cc1ccc(OCC(=O)NC23CCC(NC(=O)COc4ccc(Cl)c(F)c4)(CC2)C[C@@H]3O)cc1 [Compound 521, 2-(4-chloro-3-fluorophenoxy)-N-{(3S)-3-hydroxy-4-[2-(4-methylphenoxy)acetamido]bicyclo[2.2.2]octan-1-yl}acetamide]",< 10
13,"CN(C(=O)COc1ccc(C(F)(F)F)nc1)C12CCC(NC(=O)COc3ccc(Cl)c(F)c3)(CC1)C[C@@H]2O [Compound 377, N-{(2S)-4-[2-(4-chloro-3-fluorophenoxy)acetamido]-2-hydroxybicyclo[2.2.2]octan-1-yl}-N-methyl-2-{[6-(trifluoromethyl)pyridin-3-yl]oxy}acetamide]",500 to 2000
14,"O=C(COc1cccc(F)c1)NC12CC(NC(=O)COc3ccc(Cl)c(F)c3)(C1)C2 [Compound 410, 2-(4-chloro-3-fluorophenoxy)-N-{3-[2-(3-fluorophenoxy)acetamido]bicyclo[1.1.1]pentan-1-yl}acetamide]",< 10
15,"CO[C@@H]1C[C@]2(NC(=O)COc3ccc(Cl)c(F)c3)CC[C@@]1(NC(=O)COc1ccc(Cl)c(F)c1)CC2=O (racemic) [Compound 556, rac-N,N′-[(1R,2R,4R)-2-methoxy-5-oxobicyclo[2.2.2]octane-1,4-diyl]bis[2-(4-chloro-3-fluorophenoxy)acetamide]]",10 to 50
16,"O=C(COc1ccc(Cl)c(F)c1)NC12CC(NC(=O)COc3cnc(Cl)c(C(=O)O)c3)(C1)C2 [Compound 231, 2-chloro-5-[2-({3-[2-(4-chloro-3-fluorophenoxy)acetamido]-bicyclo[1.1.1]pentan-1-yl}amino)-2-oxoethoxy]pyridine-3-carboxylic Acid]",> 2000
17,"O=C(COc1ccc(OC(F)(F)F)cc1)NC12CCC(NC(=O)COc3ccc(F)cc3)(CC1)[C@@H](O)C2 [Compound 781, 2-(4-fluorophenoxy)-N-[(2S)-2-hydroxy-4-{2-[4-(trifluoromethoxy)phenoxy]acetamido}bicyclo[2.2.2]octan-1-yl]acetamide]",< 10
18,"O=C(COc1ccc(Cl)c(F)c1)NC12CCC(NC(=O)COc3ccc(Cl)c(F)c3)(CC1)C2 [Compound 440, N,N′-(bicyclo[2.2.1]heptane-1,4-diyl)bis[2-(4-chloro-3-fluorophenoxy)acetamide]]",< 10
19,"O=C(COCc1ccc(OC(F)F)nc1)NC12CC(NC(=O)COc3ccc(Cl)c(F)c3)(C1)C2 [Compound 279, 2-(4-chloro-3-fluorophenoxy)-N-[3-(2-{[6-(difluoromethoxy)pyridin-3-yl]methoxy}acetamido)bicyclo[1.1.1]pentan-1-yl]acetamide]",250 to 500
20,"O=C(COc1cc(F)c2cn[nH]c2c1)NC12CCC(NC(=O)COc3cc(F)c4cn[nH]c4c3)(CC1)[C@@H](O)C2 [Compound 710, N,N′-[(2S)-2-hydroxybicyclo[2.2.2]octane-1,4-diyl]bis{2-[(4-fluoro-1H-indazol-6-yl)oxy]acetamide}]",< 10
21,"O=C(COc1ccc(Cl)cc1)NC12CCCC(NC(=O)COc3ccc(Cl)cc3)(C1)C2 [Compound 178, N,N′-(bicyclo[3.1.1]heptane-1,5-diyl)bis[2-(4-chlorophenoxy)acetamide]]",> 2000
22,"O=C(COc1ccc(Cl)cc1)NC12CCC(NC(=O)COc3ccc4c(c3)OC(F)(F)O4)(CC1)CC2 [Compound 742, 2-(4-chlorophenoxy)-N-(4-{2-[(2,2-difluoro-2H-1,3-benzodioxol-5-yl)oxy]acetamido}bicyclo[2.2.2]octan-1-yl)acetamide]",< 10
23,"Cc1cc(OCC(=O)NC23CCC(NC(=O)COc4ccc(Cl)c(F)c4)(CC2)[C@@H](O)C3)cc(C)c1C [Compound 469, 2-(4-chloro-3-fluorophenoxy)-N-{(2S)-2-hydroxy-4-[2-(3,4,5-trimethylphenoxy)acetamido]bicyclo[2.2.2]octan-1-yl}acetamide]",> 2000
